Laboratory results from paper PMC6269819, “Evaluation of the Biological Activity of Naturally Occurring 5,8-Dihydroxycoumarin” (Molecules, 2013).
Marks after values point to notes of the source that are not given here.

Assays:
[1] = tested on: Wistar rat bone marrow cells; conditions: rats, single 30–40 mg/kg dose of CP; cited from earlier work
[2] = tested on: Wistar rat bone marrow cells; test: Micronucleus in vivo assay in rat bone marrow; conditions: single i.p. 30 mg/kg b.w., sacrifice 24 h
From the text: Male albino Wistar rats aged 8–10 weeks and having body weight of 200–220 g, were used in the present study. The animals were supplied by the Animal Facility of the Department of Immunology, State Research Institute Center for Innovative Medicine. Ethical approval was given by the Committee of the Lithuanian Animal Care and Use. Prior to the start of the study, the animals were acclimatized for 7 days. They were housed under conditions of constant temperature, humidity and a light/dark cycle of 12 h/12 h with free access to standard commercial pellet diet and drinking water. The animals were randomly distributed into 11 experimental groups of six rats each.
We used a mixture of dimethylsulfoxide (DMSO) and sunflower oil (1:2) as the vehicle for 5,8-DHC (5,8-DHC was dissolved in DMSO and adjusted to the desired dose with sunflower oil immediately before administration). For the acute treatment, the animals received single intraperitoneal (i.p.) injections of 10 or 20 mg/kg of 5,8-DHC in 1 mL volume per 100 g body weight (b.w.). The negative control group comprised animals, given a single i.p. injection of vehicle (1 mL/100 g b.w.) and the positive control group, given cyclophosphamide (CP, 30 mg/kg adjusted in 0.5 mL/100 g b.w. in sterile physiological saline). A commercial form of cyclophosphamide was used (‘Endoxan’, ASTA Medica AG, Frankfurt, Germany). Blank controls comprised untreated animals. For the repeated treatment, 5,8-DHC (10 or 20 mg/kg) or vehicle was administered via gavage (1 mL/100 g b.w.) once a day for 3 consecutive days. Animals were sacrificed 24 h or 48 h after the last dose administration. Colchicine was applied i.p. at a dose of 2 mg/kg b.w. in 1 mL volume 90 min before sacrifice. Both femurs were dissected from each animal and used to obtain bone marrow preparations for the analysis of chromosome aberrations and micronucleus.
The bone marrow MN assay was conducted according to the standard procedure. Ends of the femura were cut off and the bone marrow was washed out with 2 mL of heat-inactivated foetal calf serum (Biochrom AG, Berlin, Germany), mixed thoroughly to obtain a fine suspension and centrifuged for 5 min at 150 × g. The supernatant was discarded and the cell pellet was carefully re-suspended. At least two smears per animal were prepared and allowed to air dry prior to fixation with methanol. The slides were stained in May-Grünwald solution followed by Giemsa (both Merck), coded and scored blind by the same scorer under magnification of 1000× (Jenaval, Zeiss, Jena, Germany). Micronucleated polychromatic erythrocyte (MNPCE) frequencies were based on the observation of 2,000 immature polychromatic erythrocytes (PCEs). Bone marrow toxicity was monitored by a decrease of PCE to total erythrocytes (e.g., PCEs+NCEs, normochromatic erythrocytes). At least 1,000 bone marrow erythrocytes per animal were analysed.

human lymphocytes = test: Chromosome aberrations in human lymphocyte cultures in vitro; format: cell-based; conditions: female, human, 24 h, 0.02 µL/mL
Method: Blood samples were taken from two healthy female volunteers (donor A) and (donor B). Whole peripheral blood was grown in HEPES-buffered RPMI 1640 medium supplemented with 12% heat-inactivated newborn calf serum, 7.8 μg/mL phytohemagglutinin P, 50 μg/mL gentamycin, 10 μg/mL 5-bromo-2'-deoxyuridine. All reagents used for the cell culture were purchased from Sigma-Aldrich Chemical Co. (St. Louis, MO, USA). Cell cultures were incubated at 37 °C for 72 h. Treatment with test compounds was carried out 48 h after culture initiation and lasted for the period of 24 h. Dose range of 5,8-DHC (10 to 40 µg/mL) was based on pilot experiments (data not shown). As whole blood cultures display many properties common with the liver microsomal cytochrome P450 system, no external metabolising enzymes were added. 5,8-DHC was dissolved in ethanol and then diluted with RPMI 1640 medium to the desired concentration. Ethanol in a final concentration of 7.5µL/mL was used as a solvent control. […] Working solutions were made just before treatment. Two parallel cultures were used for each concentration of the compound tested. Two cultures were left untreated and served as a blank control. Methyl methanesulfonate (MMS) in a final concentration of 0.02 μL/mL was used as a positive control. The cultures were exposed to colchicine at a final concentration of 0.6 μg/mL for the last 3 h of incubation. The cells were harvested, hypotonically swollen in 0.075 M KCl and fixed in methanol: acetic acid (3:1). Air-dried slides were differentially stained by fluorescence plus Giemsa technique as has been described previously. Briefly, the slides were stained for 10 min. with 10 μg/mL of Hoechst 33258 dye (dissolved in 0.07 M Soerensen’s buffer, pH 6.8). Then the slides were rinsed, mounted with citrate buffer (pH 8.5), covered with cover slips and exposed to UV light (400 W mercury lamp at a distance of 15 cm) for 6–7 min. Slides were then rinsed and stained for 3–4 min. with 5% Giemsa. Cytogenetic analysis was performed on coded slides. No less than 100 first-mitotic division metaphases per culture were analysed for CAs, and no less than 50 second-division metaphases for SCEs.

[3] = tested on: Drosophila melanogaster wing cells; test: Somatic mutation and recombination test (SMART), wing spot test; format: in vivo; conditions: positive control, 50 μM MMS
Method: The basic procedures for the D. melanogaster somatic mutation and recombination test (SMART) were performed according to Graf and co-workers. Two D. melanogaster strains (kindly provided by Dr. H. Frei, Zurich, Switzerland) were used in the present study: virgin females from the strain ORR/ORR; flr^3/ In (3LR) TM3, ri p^p sep l(3)89Aa bx^34e e Bd^S were mated with mwh/mwh males. The ORR strain has chromosomes 1 and 2 from a DDT-resistant Oregon line, which are characterized by constitutively over-expressed CYP450 genes. The CYP 450 enzymes play the main role in the bioactivation of xenobiotics, as well as natural products including phytochemicals. Thus, the use of this high-bioactivation strain of D. melanogaster facilitates the detection of promutagens of numerous classes of compounds. The markers mwh (multiple wing hairs) and flr^3 (misshapen, flare-like hairs) are recessive wing-hair mutations located on the third chromosome at 0.3 and 38.8 respectively.
Eggs from the crosses were collected over 10 h periods. Progeny were raised on the Instant Drosophila Medium (Sigma Chemical Co., St. Louis, MO, USA) at 25 °C. Two schedules of the larvae treatment were applied. Firstly, the crossed flies were permitted to lay eggs for 10 h in vials containing medium prepared with 5,8-DHC solution. Thus, the exposure duration was about 120 h (i.e., evolutionary period from fly egg till case-worm). According to the second schedule, the 72 ± 5 h-old larvae were exposed to 5,8-DHC by adding test solution to the surface of the medium and were fed on this medium for the rest of their development, during approximately 48 h. 5,8-DHC was dissolved in ethanol and then diluted with distilled water to the desired concentration, with the final ethanol concentration 5% v/v. The solutions were always prepared immediately before use. Solvent controls were included in all treatments. Methyl methanesulfonate was included in the assay as a positive control. Trans-heterozygous (mwh flr^+ / mwh^+ flr^3) flies were collected and stored in a 70% ethanol. The wings of adult flies were mounted on glass slides in Faure’s solution, coded and scored at 400× magnification (Nikon E200) for the presence of single (mwh or flr^3 phenotype) or twin (adjacent mwh and flr^3 clones) spots. The spots were recorded according to standard procedures. No less than 40 wings were analysed per each experimental point. Two repeated experiments were carried out.

male rat hepatocytes = conditions: cited from earlier work
[4] = tested on: Chinese hamster ovary (CHO) cells; conditions: doses up to 333 μM; cited from earlier work

O=P1(N(CCCl)CCCl)NCCCO1 (stereo not drawn) [CP, cyclophosphamide, reference compound]
frequency of abnormal metaphases [1]: 16–21%
MNPCE (%± S.E.M.) [2]: 1.67 ± 0.22 ^a %
PCE (%± S.E.M.) [2]: 34.8 ± 6.4%

COS(C)(=O)=O [MMS, Methyl methanesulfonate, reference compound]
CA per 100 cells (±S.E.M.) (human lymphocytes): 12.0 ± 3.2 ^b per 100 cells
large single spots [3]: 4.63
small single spots [3]: 1.65
total spots per wing [3]: 7.15 spots per wing
twin spots [3]: 0.88
wings with spots [3]: 100%

O=c1ccc2ccccc2o1 [coumarin, 1,2-benzopyrone]
induction of UDS (male rat hepatocytes; oral administration, doses up to 320 mg/kg bw): does not induce UDS
maximum tolerated dose (male rat hepatocytes; rat, in vivo, po): 320 mg/kg bw

O=c1ccc2ccc(O)cc2o1 [umbelliferone, 7-hydroxycoumarin]
increase in SCE or chromosome aberration [4]: no evidence of increase
